Measured values reported in patent US20100069341A1, “TETRAHYDRO-PYRANOPYRAZOLE CANNABINOID MODULATORS” (priority 2005, published 2010).
Read-outs that look alike come from different tables or passages of the source.

Legend:
Cannabinoid CB2 Receptor = biological target: T1, Cannabinoid CB2 Receptor (Homo sapiens, UniProt P34972); test: Binding assay, cannabinoid CB2 receptor ([3H]-CP-55,940 displacement, SK-N-MC cell membranes); settings: test concentration of 0.2 μM; human CB2 in SK-N-MC membranes; read-out: Cannabinoid CB2 Receptor Binding, percent inhibition
T1 construct: expressed in transfected cells; semi-purified membrane pellet
T1 sequence (P34972 whole entry): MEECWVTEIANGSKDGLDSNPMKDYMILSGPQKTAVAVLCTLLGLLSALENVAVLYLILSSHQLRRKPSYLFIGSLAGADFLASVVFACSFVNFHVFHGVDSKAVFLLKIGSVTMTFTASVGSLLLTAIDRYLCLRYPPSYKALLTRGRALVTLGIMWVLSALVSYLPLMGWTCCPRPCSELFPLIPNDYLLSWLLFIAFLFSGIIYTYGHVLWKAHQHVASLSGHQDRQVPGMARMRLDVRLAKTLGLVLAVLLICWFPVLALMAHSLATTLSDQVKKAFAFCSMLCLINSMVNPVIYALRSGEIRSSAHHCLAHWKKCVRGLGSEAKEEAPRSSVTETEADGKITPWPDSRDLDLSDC
Description: (§1) Binding Assay for CB1 or CB2 Agonists or Inverse Agonists
(§2) The human CB1 and CB2 receptors were stably expressed in SK-N-MC cells transfected with pcDNA3 CB-1 (human) or pcDNA3 CB-2 (human). The cells were grown in T-180 cell culture flasks under standard cell culture conditions at 37° C. in a 5% CO2 atmosphere. The cells were harvested by trysinization and homogenized in a homogenization buffer (10 mM Tris, 0.2 mM MgCl2, 5 mM KCl, with protease inhibitors aprotinin, leupeptin, pepstatin A and bacitracin) and centrifuged (2000 g). The supernatant was then centrifuged in 2M sucrose (31,300 g) to produce a semi-purified membrane pellet. The pellet was resuspended in homogenization and store at −80° C.
(§3) On the day of the assay, the pellet was thawed on ice and diluted in assay buffer (50 mM Tris-HCl, 5 mM MgCl2, 2.5 mM EDTA, 0.5 mg/mL fatty acid free bovine serum albumin, pH 7.5). The diluted membrane was added with buffer, test compound or standard and the radioligand [H]^3+-CP-55,940 (0.2 nM) to the wells of a 96-well polypropylene plate. Non-specific binding was measured in wells containing 10 uM WIN 55,212. The plate was covered and incubated for 90 minutes at 30° C. The contents were then aspirated onto a Packard Unifilter GF/C filter bottom plate prewet with 0.5% polyethyleneimine. The wells of the polypropylene plate were rinsed and aspirated seven times with a 0.9% saline-0.5% Tween 20 solution. The Unifilter plate was dried, a scintillation cocktail was added to each well and the counts representing binding were quantitated in a TopCount scintillation counter.
For compounds tested, an IC50 binding value was obtained from percent inhibition studies in which various test concentrations were used. The binding value (in μM) was calculated by linear regression. For compounds without an IC50 binding value, the percent inhibition (in %) was obtained at a test concentration of 0.2 μM.

Cannabinoid CB1 Receptor = biological target: T2, Cannabinoid CB1 Receptor (Homo sapiens, UniProt P21554); test: Binding assay, cannabinoid CB1 receptor ([3H]-CP-55,940 displacement, SK-N-MC cell membranes); settings: for inhibition at 0.2 µM: read-out: Cannabinoid CB1 Receptor Binding, percent inhibition
T2 construct: expressed in transfected cells; semi-purified membrane pellet
T2 sequence (P21554 whole entry): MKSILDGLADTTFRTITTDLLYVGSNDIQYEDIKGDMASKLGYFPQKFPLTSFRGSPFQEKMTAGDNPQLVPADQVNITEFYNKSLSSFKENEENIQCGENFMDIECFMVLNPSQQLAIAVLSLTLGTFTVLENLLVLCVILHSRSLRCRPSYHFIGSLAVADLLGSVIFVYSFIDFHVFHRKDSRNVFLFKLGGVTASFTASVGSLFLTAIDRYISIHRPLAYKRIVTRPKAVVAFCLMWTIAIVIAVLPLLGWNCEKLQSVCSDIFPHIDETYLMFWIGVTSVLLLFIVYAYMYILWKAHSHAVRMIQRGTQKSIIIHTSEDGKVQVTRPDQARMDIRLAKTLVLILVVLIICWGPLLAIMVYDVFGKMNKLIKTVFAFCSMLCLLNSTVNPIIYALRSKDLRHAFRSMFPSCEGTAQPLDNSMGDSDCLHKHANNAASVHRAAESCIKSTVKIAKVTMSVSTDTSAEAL
Description: as §1, §2
as §3, with “The diluted membrane was added with buffer, test compound or standard and the radioligand [H]^3+-CP-55,940 (0.2 nM) to the wells of a 96-well polypropylene plate. Non-specific binding was measured in wells containing 10 uM WIN 55,212.” left out
For compounds tested, an IC50 binding value was obtained from percent inhibition studies in which various test concentrations were used. The binding value (in μM) was calculated by linear regression.

[1] = test concentration of 0.2 μM, human CB1 in SK-N-MC membranes

| Compound | inhibition at 0.2 µM (Cannabinoid CB2 Receptor) | inhibition at 0.2 µM (Cannabinoid CB1 Receptor; [1]) | inhibition at 0.2 µM (Cannabinoid CB1 Receptor) | IC50 (Cannabinoid CB1 Receptor) |
| --- | --- | --- | --- | --- |
| O=C(c1nn(-c2ccc(Cl)cc2)c2c1COC/C2=C\c1ccc(F)cc1)N1CCC[C@H]1CO [Cpd 19, (7Z)-[1-(4-chloro-phenyl)-7-(4-fluoro-benzylidene)-1,4,6,7-tetrahydro-pyrano[4,3-c]pyrazol-3-yl]-[(2S)-2-hydroxymethyl-pyrrolidin-1-yl]-methanone] | 13% | 51% | – | – |
| O=C(N[C@H]1c2ccccc2C[C@H]1O)c1nn(-c2ccc(Cl)cc2Cl)c2c1COC/C2=C\c1ccc(F)cc1 [Cpd 4, (7Z)-1-(2,4-dichloro-phenyl)-7-(4-fluoro-benzylidene)-1,4,6,7-tetrahydro-pyrano[4,3-c]pyrazole-3-carboxylic acid [(1S,2R)-2-hydroxy-indan-1-yl]-amide] | 19% | 64% | – | – |
| C[C@H](NC(=O)c1nn(-c2ccc(Cl)cc2Cl)c2c1COC/C2=C\c1ccsc1)C1CCCCC1 [Cpd 41, (7Z)-1-(2,4-dichloro-phenyl)-7-thiophen-3-ylmethylene-1,4,6,7-tetrahydro-pyrano[4,3-c]pyrazole-3-carboxylic acid [(S)-1-cyclohexyl-ethyl]-amide] | 21% | – | 56% | – |
| O=C(NN1CCCC1)c1nn(-c2ccc(Cl)cc2Cl)c2c1COC/C2=C\c1ccc(F)cc1 [Cpd 9, (7Z)-1-(2,4-dichloro-phenyl)-7-(4-fluoro-benzylidene)-1,4,6,7-tetrahydro-pyrano[4,3-c]pyrazole-3-carboxylic acid pyrrolidin-1-ylamide] | 0% | 58% | – | – |
| O=C(NN1CC2CCCC2C1)c1nn(-c2ccc(Cl)cc2)c2c1COC/C2=C\c1ccc(F)cc1 (stereo not shown) [Cpd 15, (7Z)-1-(4-chloro-phenyl)-7-(4-fluoro-benzylidene)-1,4,6,7-tetrahydro-pyrano[4,3-c]pyrazole-3-carboxylic acid (hexahydro-cyclopenta[c]pyrrol-2-yl)-amide] | 18% | 81% | – | 80 nM |
| C[C@@H](NC(=O)c1nn(-c2ccc(Cl)cc2Cl)c2c1COC/C2=C\c1ccc(Cl)o1)c1ccccc1 [Cpd 69, (7Z)-7-(5-chloro-furan-2-ylmethylene)-1-(2,4-dichloro-phenyl)-1,4,6,7-tetrahydro-pyrano[4,3-c]pyrazole-3-carboxylic acid [(R)-1-phenyl-ethyl]-amide] | 15% | 73% | – | 50 nM |
| COC[C@@H]1CCCN1NC(=O)c1nn(-c2ccc(Cl)cc2Cl)c2c1COC/C2=C\c1ccc(Cl)s1 [Cpd 73, (7Z)-7-(5-chloro-thiophen-2-ylmethylene)-1-(2,4-dichloro-phenyl)-1,4,6,7-tetrahydro-pyrano[4,3-c]pyrazole-3-carboxylic acid [(2S)-2-methoxymethyl-pyrrolidin-1-yl]-amide] | 11% | 57% | – | – |
| CC1CCCC(C)N1NC(=O)c1nn(-c2ccc(Cl)cc2Cl)c2c1COC/C2=C\c1ccc(Cl)s1 (stereo not shown) [Cpd 55, (7Z)-7-(5-chloro-thiophen-2-ylmethylene)-1-(2,4-dichloro-phenyl)-1,4,6,7-tetrahydro-pyrano[4,3-c]pyrazole-3-carboxylic acid (2,6-dimethyl-piperidin-1-yl)-amide] | 11% | 65% | – | – |
| C[C@@H](NC(=O)c1nn(-c2ccc(Cl)cc2Cl)c2c1COC/C2=C\c1ccc(Cl)s1)c1ccccc1 [Cpd 49, (7Z)-7-(5-chloro-thiophen-2-ylmethylene)-1-(2,4-dichloro-phenyl)-1,4,6,7-tetrahydro-pyrano[4,3-c]pyrazole-3-carboxylic acid [(R)-1-phenyl-ethyl]-amide] | 10% | 84% | – | 20 nM |
| O=C(NN1CC2CCCC2C1)c1nn(-c2ccc(Cl)cc2Cl)c2c1COCC2Cc1ccc(F)cc1 (stereo not shown) [Cpd 22, 1-(2,4-dichloro-phenyl)-7-(4-fluoro-benzyl)-1,4,6,7-tetrahydro-pyrano[4,3-c]pyrazole-3-carboxylic acid (hexahydro-cyclopenta[c]pyrrol-2-yl)-amide] | 18% | 66% | – | – |
| O=C(NN1CCN(CCO)CC1)c1nn(-c2ccc(Cl)cc2Cl)c2c1COC/C2=C\c1ccc(F)cc1 [Cpd 31, (7Z)-1-(2,4-dichloro-phenyl)-7-(4-fluoro-benzylidene)-1,4,6,7-tetrahydro-pyrano[4,3-c]pyrazole-3-carboxylic acid [4-(2-hydroxy-ethyl)-piperazin-1-yl]-amide] | 15% | 10% | – | – |
| C[C@H](NC(=O)c1nn(-c2ccc(Cl)cc2Cl)c2c1COC/C2=C\c1ccc(Cl)s1)C1CCCCC1 [Cpd 50, (7Z)-7-(5-chloro-thiophen-2-ylmethylene)-1-(2,4-dichloro-phenyl)-1,4,6,7-tetrahydro-pyrano[4,3-c]pyrazole-3-carboxylic acid [(S)-1-cyclohexyl-ethyl]-amide] | 2% | 34% | – | – |
| O=C(NN1CCCCCC1)c1nn(-c2ccc(Cl)cc2Cl)c2c1COC/C2=C\c1ccc(Cl)o1 [Cpd 65, (7Z)-7-(5-chloro-furan-2-ylmethylene)-1-(2,4-dichloro-phenyl)-1,4,6,7-tetrahydro-pyrano[4,3-c]pyrazole-3-carboxylic acid azepan-1-ylamide] | 9% | 71% | – | 70 nM |
| O=C(NN1CCCCC1)c1nn(-c2ccc(Cl)cc2Cl)c2c1COC/C2=C\c1ccc(Cl)s1 [Cpd 54, (7Z)-7-(5-chloro-thiophen-2-ylmethylene)-1-(2,4-dichloro-phenyl)-1,4,6,7-tetrahydro-pyrano[4,3-c]pyrazole-3-carboxylic acid piperidin-1-ylamide] | 13% | 78% | – | 20 nM |
| O=C(NN1CCCCC1)c1nn(-c2ccc(Cl)cc2Cl)c2c1COC/C2=C\c1ccsc1 [Cpd 43, (7Z)-1-(2,4-dichloro-phenyl)-7-thiophen-3-ylmethylene-1,4,6,7-tetrahydro-pyrano[4,3-c]pyrazole-3-carboxylic acid piperidin-1-ylamide] | 19% | 83% | – | 30 nM |
| O=C(N[C@@H]1c2ccccc2C[C@@H]1O)c1nn(-c2ccc(Cl)cc2Cl)c2c1COC/C2=C\c1ccc(F)cc1 [Cpd 5, (7Z)-1-(2,4-dichloro-phenyl)-7-(4-fluoro-benzylidene)-1,4,6,7-tetrahydro-pyrano[4,3-c]pyrazole-3-carboxylic acid [(1R,2S)-2-hydroxy-indan-1-yl)-amide] | 28% | 82% | – | 30 nM |
| CC1CCCC(C)N1NC(=O)c1nn(-c2ccc(Cl)cc2Cl)c2c1COC/C2=C\c1ccsc1 (stereo not shown) [Cpd 46, (7Z)-1-(2,4-dichloro-phenyl)-7-thiophen-3-ylmethylene-1,4,6,7-tetrahydro-pyrano[4,3-c]pyrazole-3-carboxylic acid (2,6-dimethyl-piperidin-1-yl)-amide] | 20% | 68% | – | – |
| C[C@@H](NC(=O)c1nn(-c2ccc(Cl)cc2Cl)c2c1COC/C2=C\c1ccc(Cl)s1)c1ccccn1 [Cpd 61, (7Z)-7-(5-chloro-thiophen-2-ylmethylene)-1-(2,4-dichloro-phenyl)-1,4,6,7-tetrahydro-pyrano[4,3-c]pyrazole-3-carboxylic acid [(R)-1-pyridin-2-yl-ethyl]-amide] | 9.5% | 84% | – | 50 nM |
| O=C(NN1CCCCC1)c1nn(-c2ccc(Cl)cc2Cl)c2c1COCC2Cc1ccc(F)cc1 (stereo not shown) [Cpd 23, 1-(2,4-dichloro-phenyl)-7-(4-fluoro-benzyl)-1,4,6,7-tetrahydro-pyrano[4,3-c]pyrazole-3-carboxylic acid piperidin-1-ylamide] | 19% | 59% | – | – |
| O=C(NN1CC2CCCC2C1)c1nn(-c2ccc(Cl)cc2Cl)c2c1COC/C2=C\c1ccsc1 (stereo not shown) [Cpd 45, (7Z)-1-(2,4-dichloro-phenyl)-7-thiophen-3-ylmethylene-1,4,6,7-tetrahydro-pyrano[4,3-c]pyrazole-3-carboxylic acid (hexahydro-cyclopenta[c]pyrrol-2-yl)-amide] | 19% | 84% | – | 20 nM |
